Legend:
[1] = molecular target: human dopamine D2 receptor (hD2R) (Homo sapiens, UniProt P14416); experiment: Human D2 receptor binding assay ([^3H]-Spiperone); conditions: CHO cells expressing hD2R, geometric mean of 2-5 determinations unless marked b (single determination)
[2] = molecular target: human dopamine D3 receptor (hD3R) (Homo sapiens, UniProt P35462); experiment: Human D3 receptor binding assay ([^3H]-7-OH-DPAT); conditions: CHO cells expressing hD3R, geometric mean of 2-5 determinations unless marked b (single determination), read-out: hD3 in CHO cells Ki
human dopamine D3 receptor (hD3R), sequence (P35462 whole entry): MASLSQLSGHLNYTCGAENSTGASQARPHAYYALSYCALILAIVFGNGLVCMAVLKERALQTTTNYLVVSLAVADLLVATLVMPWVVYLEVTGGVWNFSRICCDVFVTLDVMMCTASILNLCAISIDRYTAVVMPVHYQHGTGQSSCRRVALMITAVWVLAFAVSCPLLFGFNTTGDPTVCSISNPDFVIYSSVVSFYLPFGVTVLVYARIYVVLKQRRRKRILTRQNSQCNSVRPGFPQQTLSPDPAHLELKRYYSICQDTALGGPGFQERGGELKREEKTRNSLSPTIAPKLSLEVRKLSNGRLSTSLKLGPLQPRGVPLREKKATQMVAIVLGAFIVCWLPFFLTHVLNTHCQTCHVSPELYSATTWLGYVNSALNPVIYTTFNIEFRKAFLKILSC

human dopamine D2 receptor (hD2R), sequence (P14416 whole entry): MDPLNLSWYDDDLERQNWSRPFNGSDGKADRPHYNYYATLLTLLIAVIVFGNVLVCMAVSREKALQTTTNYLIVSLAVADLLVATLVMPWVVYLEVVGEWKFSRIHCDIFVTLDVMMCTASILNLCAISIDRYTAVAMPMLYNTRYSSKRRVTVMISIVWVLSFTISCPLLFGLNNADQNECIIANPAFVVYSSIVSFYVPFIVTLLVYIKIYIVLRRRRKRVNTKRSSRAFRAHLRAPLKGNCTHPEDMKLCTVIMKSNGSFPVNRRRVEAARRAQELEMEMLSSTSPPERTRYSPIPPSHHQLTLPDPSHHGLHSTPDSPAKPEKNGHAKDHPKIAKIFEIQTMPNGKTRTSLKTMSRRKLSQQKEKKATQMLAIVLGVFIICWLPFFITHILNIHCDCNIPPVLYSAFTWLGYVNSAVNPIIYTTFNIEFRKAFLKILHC

CCN1CCc2cc(NS(=O)(=O)c3ccc(C4(F)CCC(OC)CC4)cc3)c(OC)nc2CC1 (single isomer, unassigned) [Example 94, N-(7-ethyl-2-methoxy-6,7,8,9-tetrahydro-5H-pyrido[2,3-d]azepin-3-yl)-4-(1-fluoro-4-methoxycyclohexyl)benzenesulfonamide]
Ki [1]: 0.727 µM | Ki [2]: 0.00271 µM

COc1nc2c(cc1NS(=O)(=O)c1ccc([C@H]3CC[C@H](OC)CC3)cc1)CCN(C)CC2 [Example 38, 4-(trans-4-methoxycyclohexyl)-N-(2-methoxy-7-methyl-6,7,8,9-tetrahydro-5H-pyrido[2,3-d]azepin-3-yl)benzenesulfonamide]
Ki [1]: 0.339 µM | Ki [2]: 0.00293 µM

COc1nc2c(cc1NS(=O)(=O)c1ccc([C@H]3C[C@H](OCCF)C3)cc1)CCN(C)CC2 [Example 3, 4-[trans-3-(2-Fluoroethoxy)cyclobutyl]-N-(2-methoxy-7-methyl-6,7,8,9-tetrahydro-5H-pyrido[2,3-d]azepin-3-yl)benzenesulfonamide]
Ki [1]: 0.0859 µM | Ki [2]: 0.00156 µM

COc1nc2c(cc1NS(=O)(=O)c1ccc(C(C)C)cc1)CCN(C)CC2 [Example 54, N-(2-methoxy-7-methyl-6,7,8,9-tetrahydro-5H-pyrido[2,3-d]azepin-3-yl)-4-(propan-2-yl)benzenesulfonamide]
Ki [1]: 0.0144 µM | Ki [2]: 0.00038 µM

COc1nc2c(cc1NS(=O)(=O)c1ccc([C@@H]3CCCCO3)cc1)CCN(C)CC2 [Example 8, N-(2-Methoxy-7-methyl-6,7,8,9-tetrahydro-5H-pyrido[2,3-d]azepin-3-yl)-4-[(2S)-tetrahydro-2H-pyran-2-yl]benzenesulfonamide]
Ki [1]: 0.18 µM | Ki [2]: 0.00209 µM

CCCc1ccc(S(=O)(=O)Nc2cc3c(nc2OC)CCN(CC)CC3)cc1 [Example 62, N-(7-ethyl-2-methoxy-6,7,8,9-tetrahydro-5H-pyrido[2,3-d]azepin-3-yl)-4-propylbenzenesulfonamide]
Ki [1]: 0.0528 µM | Ki [2]: 0.0004 µM

COc1nc2c(cc1NS(=O)(=O)c1ccc(C3CC(F)CCO3)cc1)CCN(C)CC2 (single isomer, unassigned; diastereomer-2) [Example 109, 4-(4-fluorotetrahydro-2H-pyran-2-yl)-N-(2-methoxy-7-methyl-6,7,8,9-tetrahydro-5H-pyrido[2,3-d]azepin-3-yl)benzenesulfonamide, diastereomer-2]
Ki [1]: 0.208 µM | Ki [2]: 0.00316 µM

COc1nc2c(cc1NS(=O)(=O)c1ccc(C3(OC)CCCC3)nc1)CCN(C)CC2 [Example 100, 6-(1-methoxycyclopentyl)-N-(2-methoxy-7-methyl-6,7,8,9-tetrahydro-5H-pyrido[2,3-d]azepin-3-yl)pyridine-3-sulfonamide]
Ki [1]: 0.663 µM | Ki [2]: 0.00635 µM

CCN1CCc2cc(NS(=O)(=O)c3ccc(C4CCCCO4)cc3)c(OC)nc2CC1 (single isomer, unassigned) [Example 74]
Ki [1]: 0.202 µM | Ki [2]: 0.00258 µM

COc1nc2c(cc1NS(=O)(=O)c1ccc(C3CCCOC3)cc1)CCN(C)CC2 (racemic) [Example 77, N-(2-methoxy-7-methyl-6,7,8,9-tetrahydro-5H-pyrido[2,3-d]azepin-3-yl)-4-(tetrahydro-2H-pyran-3-yl)benzenesulfonamide]
Ki [1]: 0.549 µM | Ki [2]: 0.00452 µM

COc1nc2c(cc1NS(=O)(=O)c1ccc([C@]3(F)C[C@H](C)C3)nc1)CCN(C)CC2 [Example 136, 6-(trans-1-fluoro-3-methylcyclobutyl)-N-(2-methoxy-7-methyl-6,7,8,9-tetrahydro-5H-pyrido[2,3-d]azepin-3-yl)pyridine-3-sulfonamide]
Ki [1]: 1.22 µM | Ki [2]: 0.00746 µM

CCN1CCc2cc(NS(=O)(=O)c3ccc(OC(F)F)cc3)c(OC)nc2CC1 [Example 59, 4-(difluoromethoxy)-N-(7-ethyl-2-methoxy-6,7,8,9-tetrahydro-5H-pyrido[2,3-d]azepin-3-yl)benzenesulfonamide]
Ki [1]: 2.31 µM | Ki [2]: 0.0116 µM

CCO[C@H]1C[C@H](c2ccc(S(=O)(=O)Nc3cc4c(nc3OC)CCN(C)CC4)cc2)C1 [Example 22, 4-(trans-3-ethoxycyclobutyl)-N-(2-methoxy-7-methyl-6,7,8,9-tetrahydro-5H-pyrido[2,3-d]azepin-3-yl)benzenesulfonamide]
Ki [1]: 0.0303 µM | Ki [2]: 0.00264 µM

CCN1CCc2nc(OC)c(NS(=O)(=O)c3ccc(C(C)C)cc3)cc2C(C)C1 (stereo not shown) [Example 56, N-(7-ethyl-2-methoxy-5-methyl-6,7,8,9-tetrahydro-5H-pyrido[2,3-d]azepin-3-yl)-4-(propan-2-yl)benzenesulfonamide]
Ki [1]: 0.162 µM | Ki [2]: 0.00212 µM

COc1nc2c(cc1NS(=O)(=O)c1ccc([C@H]3CCCCO3)nc1)CCN(C)CC2 [Example 129, N-(2-methoxy-7-methyl-6,7,8,9-tetrahydro-5H-pyrido[2,3-d]azepin-3-yl)-6-[(2R)-tetrahydro-2H-pyran-2-yl]pyridine-3-sulfonamide]
Ki [1]: 0.786 µM | Ki [2]: 0.0167 µM

COc1nc2c(cc1NS(=O)(=O)c1ccc(C3CCOC(C)C3)cc1)CCN(C)CC2 (single isomer, unassigned) [Example 88]
Ki [1]: 0.651 µM | Ki [2]: 0.00684 µM

CCN1CCc2cc(NS(=O)(=O)c3cnc(OC4CCCC4)c(C)c3)c(OC)nc2CC1 [Example 125, 6-(cyclopentyloxy)-N-(7-ethyl-2-methoxy-6,7,8,9-tetrahydro-5H-pyrido[2,3-d]azepin-3-yl)-5-methylpyridine-3-sulfonamide]
Ki [1]: 0.00405 µM | Ki [2]: 0.00146 µM

COc1nc2c(cc1NS(=O)(=O)c1ccc(C3CCCCO3)cc1)CCN(C)CC2 (stereo not shown) [Example 6, N-(2-Methoxy-7-methyl-6,7,8,9-tetrahydro-5H-pyrido[2,3-d]azepin-3-yl)-4-(tetrahydro-2H-pyran-2-yl)benzenesulfonamide]
Ki [1]: 0.0546 µM | Ki [2]: 0.000866 µM

COc1nc2c(cc1NS(=O)(=O)c1ccc(C3(C(F)(F)F)CC3)cc1)CCN(C)CC2 [Example 55, N-(2-methoxy-7-methyl-6,7,8,9-tetrahydro-5H-pyrido[2,3-d]azepin-3-yl)-4-[1-(trifluoromethyl)cyclopropyl]benzenesulfonamide]
Ki [1]: 0.0291 µM | Ki [2]: 0.00052 µM

COc1nc2c(cc1NS(=O)(=O)c1ccc([C@]3(F)C[C@@H](C)C3)nc1)CCN(C)CC2 [Example 25, 6-(cis-1-fluoro-3-methylcyclobutyl)-N-(2-methoxy-7-methyl-6,7,8,9-tetrahydro-5H-pyrido[2,3-d]azepin-3-yl)pyridine-3-sulfonamide]
Ki [1]: 0.542 µM | Ki [2]: 0.00507 µM

COc1nc2c(cc1NS(=O)(=O)c1ccc(C3CCCOC3)cc1)CCN(C)CC2 (single isomer, unassigned) [Example 84]
Ki [1]: 0.503 µM | Ki [2]: 0.00458 µM

COc1nc2c(cc1NS(=O)(=O)c1ccc([C@H]3CCCCO3)c(F)c1)CCN(C)CC2 [Example 110, 3-fluoro-N-(2-methoxy-7-methyl-6,7,8,9-tetrahydro-5H-pyrido[2,3-d]azepin-3-yl)-4-[(2R)-tetrahydro-2H-pyran-2-yl]benzenesulfonamide]
Ki [1]: 0.025 µM | Ki [2]: 0.00127 µM

COc1nc2c(cc1NS(=O)(=O)c1ccc(C)cc1)CCN(CCCF)CC2 [Example 115, N-[7-(3-fluoropropyl)-2-methoxy-6,7,8,9-tetrahydro-5H-pyrido[2,3-d]azepin-3-yl]-4-methylbenzenesulfonamide]
Ki [1]: 0.213 µM | Ki [2]: 0.0148 µM

COc1nc2c(cc1NS(=O)(=O)c1cnc(OC3CCCC3)c(F)c1)CCN(C)CC2 [Example 130, 6-(cyclopentyloxy)-5-fluoro-N-(2-methoxy-7-methyl-6,7,8,9-tetrahydro-5H-pyrido[2,3-d]azepin-3-yl)pyridine-3-sulfonamide]
Ki [1]: 0.0252 µM | Ki [2]: 0.00169 µM

COc1nc2c(cc1NS(=O)(=O)c1ccc(OC3CCOC3)cc1)CCN(C)CC2 (stereo not shown) [Example 82, N-(2-methoxy-7-methyl-6,7,8,9-tetrahydro-5H-pyrido[2,3-d]azepin-3-yl)-4-(tetrahydrofuran-3-yloxy)benzenesulfonamide]
Ki [1]: 0.342 µM | Ki [2]: 0.00437 µM

COc1nc2c(cc1NS(=O)(=O)c1ccc(C(F)(F)C3CCCC3)nc1)CCN(C)CC2 [Example 47, 6-[cyclopentyl(difluoro)methyl]-N-(2-methoxy-7-methyl-6,7,8,9-tetrahydro-5H-pyrido[2,3-d]azepin-3-yl)pyridine-3-sulfonamide]
Ki [1]: 0.176 µM | Ki [2]: 0.00233 µM

COc1nc2c(cc1NS(=O)(=O)c1ccc(OC3CCOCC3)cc1)CCN(C)CC2 [Example 78, N-(2-methoxy-7-methyl-6,7,8,9-tetrahydro-5H-pyrido[2,3-d]azepin-3-yl)-4-(tetrahydro-2H-pyran-4-yloxy)benzenesulfonamide]
Ki [1]: 0.718 µM | Ki [2]: 0.00756 µM

COc1nc2c(cc1NS(=O)(=O)c1ccc(C3CCCOC3)cc1)CCN(C)CC2 (single isomer, unassigned) [Example 83]
Ki [1]: 0.436 µM | Ki [2]: 0.00469 µM

COc1nc2c(cc1NS(=O)(=O)c1ccc(OC3CCOC3)nc1)CCN(C)CC2 (stereo not shown) [Example 97, N-(2-methoxy-7-methyl-6,7,8,9-tetrahydro-5H-pyrido[2,3-d]azepin-3-yl)-6-(tetrahydrofuran-3-yloxy)pyridine-3-sulfonamide]
Ki [1]: 0.983 µM | Ki [2]: 0.00589 µM

COc1nc2c(cc1NS(=O)(=O)c1ccc(C3(F)CCOCC3)cc1)CCN(C)CC2 [Example 80, 4-(4-fluorotetrahydro-2H-pyran-4-yl)-N-(2-methoxy-7-methyl-6,7,8,9-tetrahydro-5H-pyrido[2,3-d]azepin-3-yl)benzenesulfonamide]
Ki [1]: 0.238 µM | Ki [2]: 0.00177 µM

CCCc1ccc(S(=O)(=O)Nc2cc3c(nc2OC)CCN(C)CC3)cc1 [Example 118, N-(2-methoxy-7-methyl-6,7,8,9-tetrahydro-5H-pyrido[2,3-d]azepin-3-yl)-4-propylbenzenesulfonamide]
Ki [1]: 0.00541 µM | Ki [2]: 0.00057 µM

CCN1CCc2cc(NS(=O)(=O)c3ccc(C4(F)CCCCC4)nc3)c(OC)nc2CC1 [Example 112, N-(7-ethyl-2-methoxy-6,7,8,9-tetrahydro-5H-pyrido[2,3-d]azepin-3-yl)-6-(1-fluorocyclohexyl)pyridine-3-sulfonamide]
Ki [1]: 0.0457 µM | Ki [2]: 0.00236 µM

Reference: US10590128B2, “6,7,8,9-tetrahydro-5H-pyrido[2,3-d]azepine dopamine D3 ligands” (Pfizer Inc., priority 2016, dated 2020)
